Source: patent US20190231751A1, “TREATMENT OF FIBROTIC DISORDERS WITH JUN N-TERMINAL KINASE INHIBITORS” (Imago Pharmaceuticals, Inc., priority 2016, published 2019)

How the values were obtained:
Assay type in all cases: biochemical
JNK1 = JNK1 (Homo sapiens, UniProt P45983); test: In vitro JNK1 inhibition (Table 1)
Description: (§1) In vitro assays for the determination of JNK activities are known in the art and exemplary assay formats are described herein.
(§2) IC50 values in Table 1 were determined using the procedures as described in U.S. Pat. No. 8,450,353.

JNK3 = JNK3 (Homo sapiens, UniProt P53779); test: In vitro JNK3 inhibition (Table 1)
Description: as §1, §2

JNK2 = JNK2 (Homo sapiens, UniProt P45984); test: In vitro JNK2 inhibition (Table 1)
Description: as §1, §2

Sequence of JNK3 (P53779 whole entry, species assumed): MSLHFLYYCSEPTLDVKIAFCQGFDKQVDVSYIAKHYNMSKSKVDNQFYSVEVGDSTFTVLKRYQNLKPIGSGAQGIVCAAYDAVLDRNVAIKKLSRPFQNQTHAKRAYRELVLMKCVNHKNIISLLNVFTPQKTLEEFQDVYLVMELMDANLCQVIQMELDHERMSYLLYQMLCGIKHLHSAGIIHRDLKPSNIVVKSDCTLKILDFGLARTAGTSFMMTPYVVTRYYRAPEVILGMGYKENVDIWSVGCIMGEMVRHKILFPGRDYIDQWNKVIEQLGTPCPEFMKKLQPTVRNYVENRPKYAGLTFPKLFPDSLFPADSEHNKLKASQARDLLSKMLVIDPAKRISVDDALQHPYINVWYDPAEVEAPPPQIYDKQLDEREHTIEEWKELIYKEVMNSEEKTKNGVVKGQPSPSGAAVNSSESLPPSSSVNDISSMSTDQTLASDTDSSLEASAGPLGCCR
Sequence of JNK1 (P45983 whole entry, species assumed): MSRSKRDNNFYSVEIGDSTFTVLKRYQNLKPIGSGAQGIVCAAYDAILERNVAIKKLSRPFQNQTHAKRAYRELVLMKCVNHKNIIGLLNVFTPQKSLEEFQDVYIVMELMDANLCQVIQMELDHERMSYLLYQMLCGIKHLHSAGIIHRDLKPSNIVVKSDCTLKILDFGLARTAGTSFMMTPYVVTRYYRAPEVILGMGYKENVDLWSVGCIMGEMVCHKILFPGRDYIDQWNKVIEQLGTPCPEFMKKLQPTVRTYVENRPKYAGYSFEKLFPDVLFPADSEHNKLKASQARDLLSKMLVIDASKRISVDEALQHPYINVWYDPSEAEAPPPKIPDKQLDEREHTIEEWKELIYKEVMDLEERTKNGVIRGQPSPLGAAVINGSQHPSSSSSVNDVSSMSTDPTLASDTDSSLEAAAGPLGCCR
Sequence of JNK2 (P45984 whole entry, species assumed): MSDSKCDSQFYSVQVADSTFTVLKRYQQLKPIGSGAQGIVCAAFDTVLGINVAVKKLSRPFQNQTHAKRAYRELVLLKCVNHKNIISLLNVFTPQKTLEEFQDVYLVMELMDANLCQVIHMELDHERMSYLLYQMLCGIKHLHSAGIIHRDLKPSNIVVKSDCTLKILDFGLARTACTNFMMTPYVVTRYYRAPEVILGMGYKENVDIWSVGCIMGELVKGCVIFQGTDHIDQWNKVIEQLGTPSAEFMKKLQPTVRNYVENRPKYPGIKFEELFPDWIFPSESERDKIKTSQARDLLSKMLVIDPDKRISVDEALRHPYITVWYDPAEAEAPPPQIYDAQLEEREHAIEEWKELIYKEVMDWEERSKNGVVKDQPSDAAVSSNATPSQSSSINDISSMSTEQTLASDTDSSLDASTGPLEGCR

O=C(Cn1c(=O)ccc2cnccc21)Nc1ccsc1-c1cscn1 [2-(2-oxo-1,6-naphthyridin-1(2H)-yl)-N-(2-(thiazol-4-yl)thiophen-3-yl)acetamide]
IC50 (JNK1): < 100 nM

O=C(Cn1c(=O)ccc2cc(C(F)(F)F)ccc21)Nc1ccsc1-c1cscn1 [2-(2-oxo-6-(trifluoromethyl)quinolin-1(2H)-yl)-N-(2-(thiazol-4-yl)thiophen-3-yl)acetamide]
IC50 (JNK3): < 100 nM
IC50 (JNK1): < 100 nM

COc1ccc(CC(=O)Nc2ccsc2-c2c[nH]c(C)n2)cc1 [2-(4-methoxyphenyl)-N-(2-(2-methyl-1H-imidazol-4-yl)thiophen-3-yl)acetamide]
IC50 (JNK3): > 10000 nM
IC50 (JNK1): > 10000 nM

COc1ccc(CC(=O)Nc2ccsc2N2CCOC2=O)cc1 [2-(4-methoxyphenyl)-N-(2-(2-oxooxazolidin-3-yl)thiophen-3-yl)acetamide]
IC50 (JNK3): > 10000 nM

COc1ccc(CC(=O)Nc2ccsc2-c2nc(-c3ccncc3)n[nH]2)cc1 [2-(4-methoxyphenyl)-N-(2-(3-(pyridin-4-yl)-1H-1,2,4-triazol-5-yl)thiophen-3-yl)acetamide]
IC50 (JNK3): > 10000 nM

COc1ccc(CC(=O)Nc2ccsc2-c2nc(C(F)(F)F)n[nH]2)cc1 [2-(4-methoxyphenyl)-N-(2-(3-(trifluoromethyl)-1H-1,2,4-triazol-5-yl)thiophen-3-yl)acetamide]
IC50 (JNK2): 10000 to 50000 nM

COc1ccc(CC(=O)Nc2ccsc2-c2nc(C)n[nH]2)cc1 [2-(4-methoxyphenyl)-N-(2-(3-methyl-1H-1,2,4-triazol-5-yl)thiophen-3-yl)acetamide]
IC50 (JNK2): 100 to 10000 nM

O=C(Cc1cccc2ncsc12)Nc1scc(Br)c1-c1ncn[nH]1 [2-(benzo[d]thiazol-7-yl)-N-(4-bromo-3-(1H-1,2,4-triazol-5-yl)thiophen-2-yl)acetamide]
IC50 (JNK3): < 100 nM
IC50 (JNK1): < 100 nM

Cc1nc(-c2sccc2NC(=O)Cc2cccc3ccccc23)n(C)n1 [N-(2-(1,3-dimethyl-1H-1,2,4-triazol-5-yl)thiophen-3-yl)-2-(naphthalen-1-yl)acetamide]
IC50 (JNK3): > 10000 nM
IC50 (JNK1): > 10000 nM

Cn1ccnc1-c1sccc1NC(=O)Cc1cccc2ccccc12 [N-(2-(1-methyl-1H-imidazol-2-yl)thiophen-3-yl)-2-(naphthalen-1-yl)acetamide]
IC50 (JNK3): > 10000 nM
IC50 (JNK1): > 10000 nM

Cn1ccc(-c2sccc2NC(=O)Cc2cccc3ccccc23)n1 [N-(2-(1-methyl-1H-pyrazol-3-yl)thiophen-3-yl)-2-(naphthalen-1-yl)acetamide]
IC50 (JNK3): > 10000 nM
IC50 (JNK1): > 10000 nM

COc1ccc(CC(=O)Nc2ccsc2-n2cncn2)cc1 [N-(2-(1H-1,2,4-triazol-1-yl)thiophen-3-yl)-2-(4-methoxyphenyl)acetamide]
IC50 (JNK3): > 10000 nM
IC50 (JNK1): > 10000 nM

O=C(Cc1cccc2ccccc12)Nc1ccsc1-n1ccnc1 [N-(2-(1H-imidazol-1-yl)thiophen-3-yl)-2-(naphthalen-1-yl)acetamide]
IC50 (JNK3): 100 to 10000 nM

COc1ccc(CC(=O)Nc2ccsc2-c2c[nH]cn2)cc1 [N-(2-(1H-imidazol-4-yl)thiophen-3-yl)-2-(4-methoxyphenyl)-acetamide]
IC50 (JNK3): > 10000 nM
IC50 (JNK1): > 10000 nM

COc1ccc(CC(=O)Nc2ccsc2-n2cccn2)cc1 [N-(2-(1H-pyrazol-1-yl)thiophen-3-yl)-2-(4-methoxyphenyl)-acetamide]
IC50 (JNK3): > 10000 nM
IC50 (JNK1): > 10000 nM

Cc1nc(-c2sccc2NC(=O)CN2C(=O)CCc3ccccc32)c[nH]1 [N-(2-(2-methyl-1H-imidazol-4-yl)thiophen-3-yl)-2-(2-oxo-3,4-dihydroquinolin-1(2H)-yl)acetamide]
IC50 (JNK3): > 10000 nM
IC50 (JNK1): > 10000 nM

COc1ccc(CC(=O)Nc2ccsc2-n2nccn2)cc1 [N-(2-(2H-1,2,3-triazol-2-yl)thiophen-3-yl)-2-(4-methoxyphenyl)acetamide]
IC50 (JNK3): 100 to 10000 nM
IC50 (JNK1): 100 to 10000 nM

COc1ccc(CC(=O)Nc2ccsc2-c2nnc(C(C)C)o2)cc1 [N-(2-(5-isopropyl-1,3,4-oxadiazol-2-yl)thiophen-3-yl)-2-(4-methoxyphenyl)acetamide]
IC50 (JNK3): > 10000 nM
IC50 (JNK1): > 10000 nM

O=C(Cn1c(=O)ccc2cc(F)c(F)cc21)Nc1sccc1-c1ncon1 [N-(3-(1,2,4-oxadiazol-3-yl)thiophen-2-yl)-2-(6,7-difluoro-2-oxoquinolin-1(2H)-yl)acetamide]
IC50 (JNK1): < 100 nM

COCn1nnnc1-c1ccsc1NC(=O)Cc1ccc(OC)cc1 [N-(3-(1-(methoxymethyl)-1H-tetrazol-5-yl)thiophen-2-yl)-2-(4-methoxyphenyl)acetamide]
IC50 (JNK3): 100 to 10000 nM
IC50 (JNK1): 100 to 10000 nM

O=C(CN1C(=O)CCc2ccccc21)Nc1sccc1-c1ncn[nH]1 [N-(3-(1H-1,2,4-triazol-5-yl)thiophen-2-yl)-2-(2-oxo-3,4-dihydroquinolin-1(2H)-yl)acetamide]
IC50 (JNK1): < 100 nM

O=C(Cc1cccc2cnccc12)Nc1scnc1-c1cscn1 [N-(4,4′-bithiazol-5-yl)-2-(isoquinolin-5-yl)acetamide]
IC50 (JNK3): < 100 nM
IC50 (JNK1): < 100 nM

O=C(Cc1cccc2ncc(C(F)(F)F)cc12)Nc1scc(Br)c1-c1nc[nH]n1 [N-(4-bromo-3-(1H-1,2,4-triazol-3-yl)thiophen-2-yl)-2-(3-(trifluoromethyl)quinolin-5-yl)acetamide]
IC50 (JNK3): < 100 nM
IC50 (JNK1): < 100 nM

O=C(Cc1cccc2cc(F)cnc12)Nc1scc(Br)c1-c1nc[nH]n1 [N-(4-bromo-3-(1H-1,2,4-triazol-3-yl)thiophen-2-yl)-2-(3-fluoroquinolin-8-yl)acetamide]
IC50 (JNK1): < 100 nM

O=C(Cn1c(=O)ccc2c(C(F)(F)F)cccc21)Nc1scc(Br)c1-c1ncn[nH]1 [N-(4-bromo-3-(1H-1,2,4-triazol-5-yl)thiophen-2-yl)-2-(2-oxo-5-(trifluoromethyl)quinolin-1(2H)-yl)acetamide]
IC50 (JNK3): < 100 nM
IC50 (JNK1): < 100 nM

O=C(Cc1cc2ncccc2cc1F)Nc1scc(Br)c1-c1ncn[nH]1 [N-(4-bromo-3-(1H-1,2,4-triazol-5-yl)thiophen-2-yl)-2-(6-fluoroquinolin-7-yl)acetamide]
IC50 (JNK1): < 100 nM

Cc1cn2c(CC(=O)Nc3scc(Br)c3-c3ncn[nH]3)csc2n1 [N-(4-bromo-3-(1H-1,2,4-triazol-5-yl)thiophen-2-yl)-2-(6-methylimidazo[2,1-b]thiazol-3-yl)acetamide]
IC50 (JNK1): < 100 nM

O=C(Cc1cc(F)cc2ncccc12)Nc1scc(Br)c1-c1ncn[nH]1 [N-(4-bromo-3-(1H-1,2,4-triazol-5-yl)thiophen-2-yl)-2-(7-fluoroquinolin-5-yl)acetamide]
IC50 (JNK3): < 100 nM
IC50 (JNK1): < 100 nM

O=C(Cc1ccc(F)c2ncccc12)Nc1scc(Br)c1-c1ncn[nH]1 [N-(4-bromo-3-(1H-1,2,4-triazol-5-yl)thiophen-2-yl)-2-(8-fluoroquinolin-5-yl)acetamide]
IC50 (JNK3): < 100 nM
IC50 (JNK1): < 100 nM

O=C(Cc1cccc2nccn12)Nc1scc(Br)c1-c1ncn[nH]1 [N-(4-bromo-3-(1H-1,2,4-triazol-5-yl)thiophen-2-yl)-2-(imidazo[1,2-a]pyridin-5-yl)acetamide]
IC50 (JNK1): < 100 nM

O=C(Cc1cccc2ccncc12)Nc1scc(Br)c1-c1ncn[nH]1 [N-(4-bromo-3-(1H-1,2,4-triazol-5-yl)thiophen-2-yl)-2-(isoquinolin-8-yl)acetamide]
IC50 (JNK3): < 100 nM
IC50 (JNK1): < 100 nM

O=C(CN1C(=O)C(F)(F)c2ccccc21)Nc1scc(Br)c1-c1nnc[nH]1 [N-(4-bromo-3-(4H-1,2,4-triazol-3-yl)thiophen-2-yl)-2-(3,3-difluoro-2-oxoindolin-1-yl)acetamide]
IC50 (JNK1): < 100 nM

O=C(Cc1ccnc2ccccc12)Nc1scc(Br)c1-c1nnc[nH]1 [N-(4-bromo-3-(4H-1,2,4-triazol-3-yl)thiophen-2-yl)-2-(quinolin-4-yl)acetamide]
IC50 (JNK3): < 100 nM
IC50 (JNK1): < 100 nM

O=C(CN1C(=O)CCc2ncccc21)Nc1scc(Br)c1-c1nccs1 [N-(4-bromo-3-(thiazol-2-yl)thiophen-2-yl)-2-(2-oxo-3,4-dihydro-1,5-naphthyridin-1(2H)-yl)acetamide]
IC50 (JNK3): < 100 nM
IC50 (JNK1): < 100 nM

CN1CCN(CCCn2cnc(-c3c(Cl)csc3NC(=O)Cn3c(=O)ccc4cc(C(F)(F)F)ccc43)n2)CC1 [N-(4-chloro-3-(1-(3-(4-methylpiperazin-1-yl)propyl)-1H-1,2,4-triazol-3-yl)thiophen-2-yl)-2-(2-oxo-6-(trifluoromethyl)quinolin-1(2H)-yl)acetamide]
IC50 (JNK3): < 100 nM
IC50 (JNK1): < 100 nM

O=C(Cc1ccc(C(F)(F)F)c2ncccc12)Nc1scc(Cl)c1-c1ncn[nH]1 [N-(4-chloro-3-(1H-1,2,4-triazol-5-yl)thiophen-2-yl)-2-(8-(trifluoromethyl)quinolin-5-yl)acetamide]
IC50 (JNK1): < 100 nM

CCc1n[nH]c(-c2c(Cl)csc2NC(=O)CN2C(=O)CCc3ncccc32)n1 [N-(4-chloro-3-(3-ethyl-1H-1,2,4-triazol-5-yl)thiophen-2-yl)-2-(2-oxo-3,4-dihydro-1,5-naphthyridin-1(2H)-yl)acetamide]
IC50 (JNK3): < 100 nM
IC50 (JNK1): < 100 nM

CC(C)c1n[nH]c(-c2c(Cl)csc2NC(=O)CN2C(=O)CCc3ncccc32)n1 [N-(4-chloro-3-(3-isopropyl-1H-1,2,4-triazol-5-yl)thiophen-2-yl)-2-(2-oxo-3,4-dihydro-1,5-naphthyridin-1(2H)-yl)acetamide]
IC50 (JNK1): < 100 nM

N#Cc1csc(NC(=O)Cc2cccc3ncccc23)c1-c1cnccn1 [N-(4-cyano-3-(pyrazin-2-yl)thiophen-2-yl)-2-(quinolin-5-yl)acetamide]
IC50 (JNK3): < 100 nM
IC50 (JNK1): < 100 nM

Cc1n[nH]c(-c2c(C)csc2NC(=O)Cc2cccc3ncccc23)n1 [N-(4-methyl-3-(3-methyl-1H-1,2,4-triazol-5-yl)thiophen-2-yl)-2-(quinolin-5-yl)acetamide]
IC50 (JNK3): < 100 nM
IC50 (JNK1): < 100 nM

Cc1nnc(-c2c(C)csc2NC(=O)Cc2ccc(-c3ccncc3)cc2)[nH]1 [N-(4-methyl-3-(5-methyl-4H-1,2,4-triazol-3-yl)thiophen-2-yl)-2-(4-(pyridin-4-yl)phenyl)acetamide]
IC50 (JNK3): 100 to 10000 nM
